Legend:
3T3 cells = experiment: ATP assay, inhibition of proliferation; assay type: cell-based; settings: Mus musculus, NIH3T3, 48 h, non-cytotoxic dilutions, mean values of at least 2 independent tests
Procedure: 3T3 cells (mouse […] fibroblasts) were seeded in 96-well plates. After 24 h cultivation at 37° C. and 5% CO2 in DMEM (Dulbecco's Modified Eagle Medium), cells were treated with test substances for another 48 h. […] ATP content in the cells is measured by
The inhibition of proliferation was calculated by:
[formula] wherein RLU test substance=relative luminescent units of the wells with test substance and with cells RLU control=relative luminescent units of the wells without test substance, but with cells RLU control without cells=relative luminescent units of the wells without test substance and without cells
The IC50 is calculated from the proliferation inhibition [%] in a series of non-cytotoxic dilutions of tested samples. This is the concentration at which the proliferation is 50% inhibited.

3T3-L1 cells = experiment: Lipolysis assay, in vitro on 3T3-L1 cells, free glycerol release; assay type: cell-based; settings: Mus musculus; differentiated 3T3-L1 cells, about 20 hours of incubation; mean values from at least 2 independent tests; read-out: Stimulation of lipolysis EC50
Procedure: 3T3-L1 cells (mouse embryonic fibroblast-like adipocyte cell line) are seeded in a 48-well plate with collagen I-coating in a concentration of 3×10^4 cells/well. The cultivation and differentiation of the cells takes place analogously to the details in Example 2 (adipogenesis assay).
Various concentrations of the test substances are applied to the cells in DMEM, with bovine serum albumen added. After about 20 hours of incubation, the quantification of free glycerol in the supernatant of the cells takes place, which is released by the cells after hydrolysis of triglycerides in the cells and is a measure of the lipolysis of the cells. The quantification of the free glycerol is carried out based on an enzymatic method with a free glycerol reagent.
The stimulation of the lipolysis in the presence of test substances is calculated according to the following equation:
[formula] wherein A test substance=absorption of the wells with test substance and with cells A test substance without cells=absorption of the wells with test substance without cells (absorption control) A control=absorption of the wells without test substance, but with cells A control without cells=absorption of the wells without test substance and without cells
The EC50 is calculated from the lipolysis stimulation [%] in a series of dilutions of tested samples. This is the concentration at which the lipolysis is 50% stimulated.

pancreatic lipase (PL) = biological target: T1, pancreatic lipase (PL) (Sus scrofa, UniProt P00591); experiment: Inhibition of PL, MUF oleate hydrolysis; assay type: biochemical; settings: mean values of at least 2 independent tests
T1 construct: purchased Sigma-Aldrich
T1 sequence (P00591 1-450): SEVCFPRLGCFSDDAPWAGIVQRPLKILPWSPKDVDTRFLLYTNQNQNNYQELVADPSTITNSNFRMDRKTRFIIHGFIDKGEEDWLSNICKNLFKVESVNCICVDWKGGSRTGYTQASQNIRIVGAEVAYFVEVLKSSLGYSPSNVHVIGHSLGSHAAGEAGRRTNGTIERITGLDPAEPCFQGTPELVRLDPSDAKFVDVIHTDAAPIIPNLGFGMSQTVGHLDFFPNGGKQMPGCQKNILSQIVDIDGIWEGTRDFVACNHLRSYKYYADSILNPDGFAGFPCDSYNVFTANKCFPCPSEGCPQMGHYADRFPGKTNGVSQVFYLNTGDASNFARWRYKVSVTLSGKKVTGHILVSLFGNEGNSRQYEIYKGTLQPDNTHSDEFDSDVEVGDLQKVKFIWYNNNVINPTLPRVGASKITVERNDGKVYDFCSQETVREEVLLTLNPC
Text: Lipogenesis is perceived as the storage of triglycerides in adipocytes. The inhibition of this storage can take place by means of the inhibition of the activity of extracellular lipoprotein lipase (LPL) in that the hydrolysis of extracellular triglycerides and therefore the absorption of free fatty acids by adipocytes are reduced. As a preliminary test, the inhibition of pancreatic lipase (PL) is investigated.
PL (Sigma-Aldrich), in the presence of test substances in different use concentrations has methylumbelliferyl oleate (MUF oleate) added as a substrate. Fluorescent methylumelliferon (MUF), is produced by hydrolysis of the MUF oleate by PL and is quantified. The inhibition of the hydrolysis of the MUF oleate is a measure of the inhibition of activity of the PL.
[formula] wherein MUF test substance=MUF concentration of the wells with test substance and with PL MUF control=MUF concentration of the wells without test substance, but with PL MUF control without PL=MUF concentration of the wells without test substance and without PL
The IC50 is calculated from the inhibition of the PL [%] in a series of dilutions of tested samples. This is the concentration, at which the activity of the PL is 50% inhibited.

IC50 (pancreatic lipase (PL))	SMILES	IC50 (3T3 cells)	EC50 (3T3-L1 cells)
1380 µM	CCCCNC(=O)OC1C(C)CCC(C)C1C (stereo not drawn) [BIO1617, Butyl-carbamic acid 2,3,6-trimethyl-cyclohexyl ester]	244 µM	980 µM
720 µM	CCC(C)NC(=O)OC1CCCC(C)C1C (stereo not drawn) [BIO1845, sec-Butyl-carbamic acid 2,3-dimethyl-cyclohexyl ester]	345 µM	190 µM
780 µM	CCCCNC(=O)OC1CCCCC1C(C)C (stereo not drawn) [BIO1841, Butyl-carbamic acid 2-isopropyl-cyclohexyl ester]	255 µM	230 µM
